Values quoted from earlier work in patent US20240307364A1, “GAS TRANSMISSION EMULSION FOR INTRAVENOUS ADMINISTRATION” (priority 2021, published 2024).
Like-named read-outs stand apart in the source and are kept apart here.

Assays:
[1] = measure of relative solubility of PFOC in lipids
[2] = 37° C.
[3] = toxic or locally irritating properties of the detected impurity

Row | Molecule | TcrH (temperature at which equal volumes of PFOC and hexane are mixed together) [1] | Grade of clearance rate (in vivo) | Toxicity, yes/no [3] | also measured
1 | FC1(F)C(F)(F)C(F)(F)C2(F)C(F)(F)C(F)(F)C(F)(F)C2(F)C1(F)F (stereo not drawn) [Perfluorobicyclo[4.3.0]nonane] | 13 °C | Fast |  | P, vapor tension [2]: 33 mm Hg; t1/2, elimination half-life (elimination from an organism): 4 days
2 | Perfluorodimethyladamantane [Perfluorodimethyladamantane (PFDMA)] | 32 °C | Fast |  | t1/2, elimination half-life (in vivo): 10 to 20 days
3 | O-ethyl-methoxy-phenyl-oxime |  |  | yes | 
4 | CC1=NN(c2ccccc2)C(=O)C1 [3H-pyrazol-3-one, 2,4-dihydro-5-methyl-2-phenyl-] |  |  | yes | 
5 | COC(=O)c1ccccc1C(=O)OC [dimethyl phthalate] |  |  | no | 
6 | CC(C)COC(=O)c1ccccc1C(=O)OCC(C)C [diisobutyl phthalate] |  |  | yes | 
7 | Fc1ccc2ccccc2c1 [naphthalene, 2-fluoro-] |  |  | yes | 
8 | FC(F)(F)N(C(F)(F)C(F)(F)C(F)(F)C(F)(F)F)C1(F)C(F)(F)C(F)(F)C(F)(C(F)(F)F)C(F)(F)C1(F)F (stereo not drawn) [perfluoromethylbutyl(4-methylcyclohexyl)amine] |  |  | no | 
9 | FC(F)(F)C1(F)C(F)(F)C(F)(F)C(F)(F)C(F)(F)C1(F)F (single isomer, unassigned) [perfluoro(methylcyclohexane)] |  |  | no | 
10 | Cc1cc(Cc2cc(C)cc(C(C)(C)C)c2O)c(O)c(C(C)(C)C)c1 [phenol, 2,2′-methylenebis[6-(1,1-dimethylethyl)-4-methyl-] |  |  | yes | 
11 | FC(F)(F)C(F)(F)C(F)(F)N1C(F)(F)C(F)(F)C(F)(F)C(F)(F)C1(F)C(F)(F)F (stereo not drawn) [Perfluoro-1-propyl-2 methylpiperidine] | 35 °C | Fast |  | P, vapor tension [2]: 19 mm Hg; t1/2, elimination half-life (elimination from an organism): 24 days
12 | FC1(F)C(F)(F)C(F)(F)C(F)(F)C(F)(F)C1(F)F (single isomer, unassigned) [cyclohexane, dodecafluoro-] |  |  | yes | 
13 | CN(C)C(=S)N(C)C [thiourea, tetramethyl-] |  |  | yes | 
14 | FC(F)(F)C(F)(F)C(F)(F)N(C(F)(F)C(F)(F)C(F)(F)F)C(F)(F)C(F)(F)C(F)(F)F [Perfluorotripropylamine (PFTPA), Perfluorotripropylamine] | 43 °C | Slow |  | P, vapor tension [2]: 17 mm Hg; t1/2, elimination half-life (elimination from an organism): 65 days
15 | OCC(O)CO [glycerol] |  |  | no | 
16 | c1ccc2ccccc2c1 [naphthalene] |  |  | yes | 
17 | CC1C=CCC(C)(C)C1 (stereo not drawn) [cyclohexene, 3,5,5-trimethyl-] |  |  | yes | 
18 | FC(F)(F)N1C(F)(F)C(F)(F)C(F)(C2(F)C(F)(F)C(F)(F)C(F)(F)C(F)(F)C2(F)F)C(F)(F)C1(F)F [Perfluoromethylcyclohexylpiperidine] |  | Slow |  | t1/2, elimination half-life (elimination from an organism): 90 days
19 | CCOC(=O)c1ccccc1 [benzoic acid ethyl ester] |  |  | yes | 
20 | FC1(F)C(F)(F)C(F)(F)C2(F)C(F)(F)C(F)(F)C(F)(F)C(F)(F)C2(F)C1(F)F (stereo not drawn) [Perfluorodecalin (PFD), Perfluorodecalin] | 22 °C | Fast |  | P, vapor tension [2]: 12 mm Hg
21 | CCCCCO (single isomer, unassigned) [pentanol] |  |  | yes | 
22 | FC1(F)C(F)(F)C2(F)C(F)(F)C(F)(F)C(F)(F)C3(F)C(F)(F)C(F)(F)C(F)(C1(F)F)C23F (stereo not drawn) [Perfluorodecahydroacenaphthene] | 24 °C | Fast |  | P, vapor tension [2]: 2 mm Hg; t1/2, elimination half-life (elimination from an organism): 7 days
23 | Cc1cc(O)n(Cc2ccccc2)c(=O)c1C#N [1-benzyl-6-hydroxy-4-methyl-2(1H)-oxo-3-pyridinecarbonitrile] |  |  | yes | 
24 | FC(F)(F)C(F)(F)C(F)(F)C(F)(F)C(F)(F)C(F)(F)C(F)(F)C(F)(F)Br [Perfluorooctyl bromide (PFOB), Perfluorooctyl bromide] | −20 °C | Fast |  | P, vapor tension [2]: 10.5 mm Hg
25 | Perfluorodihexyl ether | 59 °C | Slow |  | P, vapor tension [2]: 2 mm Hg; t1/2, elimination half-life (elimination from an organism): 500 days
26 | FC(F)(F)C(F)(F)C(F)(F)C(F)(F)N(C(F)(F)C(F)(F)C(F)(F)C(F)(F)F)C(F)(F)C(F)(F)C(F)(F)C(F)(F)F [Perfluorotributylamine (PFTBA), Perfluorotributylamine] | 61 °C | Slow |  | P, vapor tension [2]: 1 mm Hg; t1/2, elimination half-life (elimination from an organism): 400 to 900 days
27 | CCOC(C)c1ccccc1 (single isomer, unassigned) [benzene, (1-ethoxyethyl)-] |  |  | yes | 
28 | OCc1ccco1 (single isomer, unassigned) [furfurol] |  |  | yes | 
29 | CO/C(=N\O)c1ccccc1 [oxime-, methoxy-phenyl-] |  |  | yes | 
